This assay relates to viruses. Kind of assay: in vitro virucidal action. The settings on record: as the degree of hydroxymethylation increases.

On to hydroxymethyl-hyaluronic acid, for which the virucidal action result is reported as “increased”.

The values are drawn from patent US10022394B2, “Antiinfective composition” (priority 2011, dated 2018).
